Test system: skin of human subjects
Experiment: Human Repeat Insult Patch Testing (HRIPT)
Assay type: in vivo
Details: positive control, 71 subjects
Method: The study duration was 6 weeks and 71 male and female subjects, ranging in age from 18 to 65, completed the study. Subjects were requested to bathe or wash as usual before arrival at the facility Patches containing the test material were then affixed directly to the skin of the intrascapular regions of the back, to the right or left of the midline and subjects were dismissed with instructions not to wet or expose the test area to direct sunlight. Patches remained in place for 48 hours after the first application. Subjects were instructed not to remove the patches prior to their 48-hour scheduled visit, thereafter, subjects were instructed to remove patches 24 hours after application for the remainder of the study. […] Prior to each reapplication, the test sites were evaluated by trained laboratory personnel. Following a 10-14 day rest period a retest/challenge dose was applied once to a previously unexposed test site. Test sites were evaluated by trained laboratory personnel 48 and 96 hours after application. In the event of a reaction, the area of erythema and edema were measured. Edema is estimated by the evaluation of the skin with respect to the contour of the unaffected normal skin. Subjects were instructed to report any delayed reactions that might occur after the final reading.

## CCCCCCCCCCCCOS(=O)(=O)[O-].[Na+] [1.0% Sodium Lauryl Sulfate Solution, Sodium Lauryl Sulfate]
  subjects with a Grade 1 reaction: 3 subjects
  subjects with a Grade 2 reaction: 1 subject

— patent US20240366487A1, “ANTI-AGING COMPOSITIONS FOR SENSITIVE SKIN” (Baek Clinical Inc., priority 2023, published 2024)
